# Laboratory results as given in US20070032520A1, “Indol-5-yl sulfonamide derivatives, their preparation and their use 5-ht-6 as modulators” (Laboratorios Del Dr. Esteve S.A, priority 2003, published 2007).
row,melting point [°C],SMILES
1,120 to 123,"CN(C)CCn1ccc2cc(NS(=O)(=O)c3cc(Cl)c(Cl)s3)ccc21 [Example 20, N-[1-(2-dimethylaminoethyl)-1H-indole-5-yl]-4,5-dichlorothiophene-2-sulfonamide]"
2,114 to 116,"CN(C)CCn1ccc2cc(NS(=O)(=O)c3cccc(Br)c3)ccc21 [Example 13, N-[1-(2-dimethylaminoethyl)-1H-indole-5-yl]-3-bromobenzenesulfonamide]"

# The next lines start with the molecule.
row,SMILES,melting point [°C]
1,"CN(C)CCn1ccc2cc(NS(=O)(=O)c3c(Cl)nc4sccn34)ccc21 [Example 11, N-[1-(2-dimethylaminoethyl)-1H-indole-5-yl]-6-chloroimidazo[2,1-b]thiazole-5-sulfonamide]",50 to 52
2,"CN(C)CCn1ccc2cc(NS(=O)(=O)c3cc(Cl)cc(Cl)c3)ccc21 [Example 12, N-[1-(2-dimethylaminoethyl)-1H-indole-5-yl]-3,5-dichlorobenzenesulfonamide]",124 to 126
3,"CN(C)CCn1ccc2cc(NS(=O)(=O)c3cccc4ccccc34)ccc21 [Example 3, N-[1-(2-dimethylaminoethyl)-1H-indole-5-yl]-naphthalene-1-sulfonamide]",179 to 181
4,"CN(C)CCn1ccc2cc(NS(=O)(=O)c3cccc4c(Cl)cccc34)ccc21 [Example 4, N-[1-(2-dimethylaminoethyl)-1H-indole-5-yl]-5-chloronaphthalene-1-sulfonamide]",172 to 174
